Experimental data from patent publication US4704396A, “Phenacyl esters of 1-substituted-6-(substituted and unsubstituted) dihydrolysergic acids useful as 5HT receptor antagonists” (Eli Lilly and Company, priority 1985, dated 1987).
Counter-ions that a name gives are not always drawn.

These molecules were tested against T1, 5HT2 receptors (Rattus norvegicus, UniProt P14842) (assay: Apparent dissociation constants (KB) against serotonin contraction in rat jugular vein). Details: serotonin agonist, antagonist incubated one hour, read-out: 5HT2 -Log Kb ± S.E. (converted).
T1 construct: from tissue; host or cells: external jugular vein of male Wistar rats
T1 sequence (P14842 whole entry): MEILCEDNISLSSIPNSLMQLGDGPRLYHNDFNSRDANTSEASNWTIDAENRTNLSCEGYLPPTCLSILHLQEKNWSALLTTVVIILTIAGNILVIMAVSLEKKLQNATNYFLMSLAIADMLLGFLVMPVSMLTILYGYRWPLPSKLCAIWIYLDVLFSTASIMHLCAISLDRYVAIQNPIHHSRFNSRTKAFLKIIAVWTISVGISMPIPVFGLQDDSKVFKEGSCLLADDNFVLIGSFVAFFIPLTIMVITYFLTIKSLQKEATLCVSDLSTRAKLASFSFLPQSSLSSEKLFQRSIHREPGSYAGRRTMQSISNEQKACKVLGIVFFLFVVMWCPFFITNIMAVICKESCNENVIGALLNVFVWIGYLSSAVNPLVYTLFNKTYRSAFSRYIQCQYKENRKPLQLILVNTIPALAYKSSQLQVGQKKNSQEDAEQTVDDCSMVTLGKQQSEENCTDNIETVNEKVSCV
Format: cell-based
Procedure: An initial optimum resting force of 1 and 4 g was applied to the jugular veins and aorta, respectively. […] Exp. Ther., 205, 400 (1978). Alpha receptor antagonist activity was evaluated in the aorta.
`CC(C)n1cc2c3c(cccc31)[C@H]1C[C@@H](C(=O)OC(C)(C)C(=O)c3ccccc3)CN(C)[C@@H]1C2` [R^3=CH3 R^4=CH3 R^10=H maleate, α,α-Dimethylphenacyl 1-isopropyl-9,10-dihydrolysergate maleate monohydrate] gave a Kb of 14.8 nM. `CC(C)n1cc2c3c(cccc31)[C@H]1C[C@@H](C(=O)OCC(=O)c3ccc(Cl)cc3)CN(C)[C@@H]1C2` [R^3=H R^4=H R^10=p-Cl maleate, p-Chlorophenacyl 1-isopropyl-9,10-dihydrolysergate maleate] was tested, and the Kb was 34.7 nM. Work on `COc1ccc(C(=O)COC(=O)[C@@H]2C[C@@H]3c4cccc5c4c(cn5C(C)C)C[C@H]3N(C)C2)cc1` [R^3=H R^4=H R^10=p-OCH3 maleate, p-Methoxyphenacyl 1-isopropyl-9,10-dihydrolysergate maleate] yielded a Kb of 1.29 nM. In the case of `CC(OC(=O)[C@@H]1C[C@@H]2c3cccc4c3c(cn4C(C)C)C[C@H]2N(C)C1)C(=O)c1ccccc1` (mixture of isomers) [R^3=CH3 R^4=H R^10=H maleate, (±)-α-Methylphenacyl 1-isopropyl-9,10-dihydrolysergate maleate], the Kb is reported as 4.57 nM. `CC(C)n1cc2c3c(cccc31)[C@H]1C[C@@H](C(=O)OCC(=O)c3ccc(-c4ccccc4)cc3)CN(C)[C@@H]1C2` [R^3=H R^4=H R^10=p-phenyl maleate, 4-Phenylphenacyl 1-isopropyl-9,10-dihydrolysergate maleate] was tested, and the Kb was 70.8 nM. In the case of `CC(C)n1cc2c3c(cccc31)[C@H]1C[C@@H](C(=O)OCC(=O)c3ccc(O)cc3)CN(C)[C@@H]1C2` [R^3=H R^4=H R^10=p-OH maleate.H2 O, p-Hydroxyphenacyl 1-isopropyl-9,10-dihydrolysergate maleate], the Kb is reported as 0.138 nM. In the case of `CC(OC(=O)[C@@H]1C[C@@H]2c3cccc4c3c(cn4C(C)C)C[C@H]2N(C)C1)C(=O)c1ccc(O)cc1` (stereo partly drawn) [R^3=CH3 R^4=H R^10=p-OH maleate, α-Methyl-p-hydroxyphenacyl 1-isopropyl-9,10-dihydrolysergate maleate], the Kb is reported as 0.347 nM. For `CC(C)n1cc2c3c(cccc31)[C@H]1C[C@@H](C(=O)OCC(=O)c3ccccc3)CN(C)[C@@H]1C2` [R^3=H R^4=H R^10=H maleate.H2 O, phenacyl 1-isopropyl-9,10-dihydrolysergate maleate monohydrate], the Kb was 15.1 nM.
